Test results: patent publication US7781468B2, “Tyrosine derivatives substituted by N-arylacryloyl as agonists of hPPAR alpha and/or hPPAR gamma” (Beijing Molecule Science Technology Co., Ltd., priority 2004, dated 2010)

Legend:
Human PPARα = target: T1, Human PPARα (Homo sapiens, UniProt Q07869); assay: Activity assay on activating human PPARα (GAL4 chimeric receptor luciferase reporter, transient transfection in 293-T cells); type: cell-based; conditions: for Photon number (×10^4) / Increased multiple vs control: compound 10 μM; for Photon number (×10^4): luciferase measured 24 h after administration, control 2.1; for Increased multiple vs control: vs 0.2‰ DMSO blank control; for EC50: activation of PPARα
T1 construct: expressed in transfected cells; host or cells: 293-T cells
T1 sequence (Q07869 239-466 limits assumed): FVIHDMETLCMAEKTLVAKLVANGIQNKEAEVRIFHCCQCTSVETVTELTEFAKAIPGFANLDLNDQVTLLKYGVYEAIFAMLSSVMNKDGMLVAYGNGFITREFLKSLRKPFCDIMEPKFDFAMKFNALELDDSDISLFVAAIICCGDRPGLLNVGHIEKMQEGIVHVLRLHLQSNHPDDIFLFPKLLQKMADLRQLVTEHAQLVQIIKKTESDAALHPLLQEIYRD
Protocol: (§1) The compounds were screened with respect to their functional effect of instantaneous transfection in 293-T cells, so that their capabilities of activating PPAR subtypes were determined. A chimeric receptor system as established in advance was used to compare the influence of receptor subtypes on the transcription activity of same target gene, with Rluc as an internal control to reduce the endogenous influence. Human PPARα and PPARγ ligand-binding domains were fused respectively with yeast transcription factor GAL4 DNA-binding domains, and then linked to expression vector pM of mammal, to thereby construct two plasmids pM-hPPARα/GAL4 and pM-PPARγ/GAL4. GAL4 DNA-binding area was linked to pB4-tk-luc, to thereby construct pB4-RES-tk-luc (a firefly luciferase reporter gene comprising GAL4 DNA-binding site). pRL-CMV-Rluc was used as an internal control to normalize transfection efficiency and endogenous influence.
(§2) 293-T cells were incubated in a 48-well plate at a cell density of 2-4×10^4/well, using a phenol red-free and antibiotic-free 1640 medium containing 10% defatted fetal calf serum (FCS). After culturing for 48 h, the medium was replaced with a phenol red-free and antibiotic-free 1640 medium containing 5% defatted FCS, and then three plasmids pM-hPPAR/GAL4, pB4-RES-tk-luc and pRL-CMV-Rluc pertaining to two subtypes were respectively co-transfected into the 293-T cells. The strength of luciferase was measured at the time of 24 h after administration, with 0.2‰ DMSO as a blank control.

Human PPARγ = target: T2, Human PPARγ (Homo sapiens, UniProt P37231); assay: Activity assay on activating human PPARγ (GAL4 chimeric receptor luciferase reporter, transient transfection in 293-T cells); type: cell-based; conditions: for Photon number (×10^4) / Increased multiple vs control: compound 10 μM; for Photon number (×10^4): luciferase measured 24 h after administration, control 1.4; for Increased multiple vs control: vs 0.2‰ DMSO blank control; for EC50: activation of PPARγ
T2 construct: expressed in transfected cells; host or cells: 293-T cells
T2 sequence (P37231 238-503 limits assumed): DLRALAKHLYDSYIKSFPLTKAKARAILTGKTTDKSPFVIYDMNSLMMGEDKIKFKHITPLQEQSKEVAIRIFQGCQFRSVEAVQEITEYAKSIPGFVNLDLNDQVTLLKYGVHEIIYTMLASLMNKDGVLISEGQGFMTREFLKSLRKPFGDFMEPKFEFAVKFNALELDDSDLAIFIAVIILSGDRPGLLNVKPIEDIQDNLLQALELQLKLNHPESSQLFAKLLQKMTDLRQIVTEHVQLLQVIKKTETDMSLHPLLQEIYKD
Protocol: as §1, §2

SMILES | melting point | Photon number (×10^4) (Human PPARα) | Increased multiple vs control (Human PPARα) | Photon number (×10^4) (Human PPARγ) | Increased multiple vs control (Human PPARγ) | EC50 (Human PPARα) | EC50 (Human PPARγ)
Cc1oc(-c2ccccc2)nc1CCOc1ccc(C[C@H](NC(=O)C=Cc2ccc(F)cc2F)C(=O)O)cc1Br [Example 12, (2S)-3-{3-bromo-4-[2-(5-methyl-2-phenyl-1,3-oxazol-4-yl)-ethoxy]-phenyl}-2-(3-(2,4-difluorophenyl)-acryloylamino)-propanoic acid] | 221 to 223 °C | – | – | – | – | – | –
Cc1oc(-c2ccccc2)nc1CCOc1ccc(C[C@H](NC(=O)C=Cc2ccc(F)c(F)c2)C(=O)O)cc1 [Example 7, (2S)-2-[3-(3,4-difluorophenyl)acryloylamino]-3-{4-[2-(5-methyl-2-phenyl-1,3-oxazol-4-yl)-ethoxy]-phenyl}-propanoic acid] | – | 8.6 ×10^4 | 4.1 | 29.0 ×10^4 | 20.7 | – | –
Cc1oc(-c2ccccc2)nc1CCOc1ccc(C[C@H](NC(=O)C=Cc2ccco2)C(=O)O)cc1 [Example 9, (2S)-2-(3-(furan-2-yl)-acryloylamino)-3-{4-[2-(5-methyl-2-phenyl-1,3-oxazol-4-yl)-ethoxy]-phenyl}-propanoic acid] | 199 to 201 °C | 9.8 ×10^4 | 4.7 | 23.7 ×10^4 | 16.9 | 770 nM | 74 nM
Cc1oc(-c2ccccc2)nc1CCOc1ccc(C[C@H](NC(=O)C=Cc2ccc(F)cc2)C(=O)O)cc1 [Example 3, (2S)-2-(3-(4-fluorophenyl)acryloylamino)-3-{4-[2-(5-methyl-2-phenyl-1,3-oxazol-4-yl)-ethoxy]-phenyl}-propanoic acid] | 188 to 190 °C | – | – | – | – | – | –
Cc1oc(-c2ccccc2)nc1CCOc1ccc(C[C@H](NC(=O)C=Cc2ccc(F)cc2F)C(=O)O)cc1 [Example 8, (2S)-2-[3-(2,4-difluorophenyl)-acryloylamino]-3-{4-[2-(5-methyl-2-phenyl-1,3-oxazol-4-yl)-ethoxy]-phenyl}-propanoic acid] | – | 18.8 ×10^4 | 8.9 | 27.6 ×10^4 | 19.7 | 4970 nM | 1160 nM
Cc1ccc(C=CC(=O)N[C@@H](Cc2ccc(OCCc3nc(-c4ccccc4)oc3C)c(Br)c2)C(=O)O)cc1 [Example 10, (2S)-3-{3-bromo-4-[2-(5-methyl-2-phenyl-1,3-oxazol-4-yl)-ethoxy]-phenyl}-2-(3-p-tolylacryloylamino)-propanoic acid] | – | – | – | 24.1 ×10^4 | 17.2 | – | –
